Measurements as given in patent US8518953B2, “Aminopyrimidines useful as inhibitors of protein kinases” (Vertex Pharmaceuticals Incorporated, priority 2007, dated 2013).

What was measured:
rats subjected to MCAO = test: Post Stroke Recovery MCAO Model: Forepaw Asymmetry (Cylinder Test); assay type: in vivo, rat; details: low dose, 14 days after stroke
Text: Adult male Wistar rats are pre-trained on a battery of behavioral tests including: tray reach, […], forelimb asymmetry (cylinder bracing), forelimb inhibition (swim test) (see below for detailed description of tests). Following pre-stroke behavioral assessment the rats receive surgery during which a stroke is induced. The rats are pseudo-randomly divided into 5 equal groups (n=12) ensuring an equal number of right and left strokes within each treatment group. The first group receives sham surgery with vehicle as treatment. Administration of the test compound and vehicle (dose, route, timing) is determined by the sponsor. The core body temperature is maintained at 37° C. (+/-1°). Following surgery all animals are behaviorally assessed 1, 7, and 14 d post-stroke. At the conclusion of behavioral assessment all rats undergo an MRI to determine infarct volume. […] Rectal temperature is monitored and maintained at 37 C+/-1° C. for the duration of the surgery and until the rat is awake and mobile (approximately 3 hr). […] Forepaw asymmetry of the animals is measured by placing a rat into a clear acrylic cylinder 25 cm in diameter. […] The first paw that touches the cylinder wall during the rear is counted. […]

[1] = tested on: β-catenin dependent TCF/LEF transcriptional activity; test: β-Catenin Stabilization Protocol (β-lactamase reporter assay in Jurkat cells); assay type: cell-based; details: Homo sapiens, 460/530 ratio, read-out: Beta Catenin IC50
Text: GSK-3 phosphorylation of β-catenin targets it to the proteosome for degradation. Inhibition of GSK-3 results in accumulation of β-catenin in the cytosol of cells which through interaction with the transcription factor TCF/LEF translocates to the nucleus and drives the transcription of Wnt-dependent genes. The assay is designed to determine the level of β-catenin dependent TCF/LEF transcriptional activity in a quantitative manner through the use of a β-lactamase reporter assay in Jurkat cells dosed with a compound.
Jurkat β-catenin cells are starved overnight in assay media (1% FBS, 1× Penstrep, RPMI) in the flask. The next day Jurkat β-catenin cells are seeded in 96 well flat bottom plates at a density of 50,000 cells/well in assay media in a volume of 100 ul. The compound is added to the well at a final DMSO concentration of 0.75% and incubated at 37° C. o/n. The next day, 20 uL of 6×CCF4 dye is added to the wells and incubated at room temperature for 1-2 hours. Plates are read on the Cytofluor 4000 series multiwell plate reader and the 460/530 ratio is determined.

GSK-3α/β pTYR = test: pTYR Biomarker Analysis in brains of MCAO rats (Western blot); assay type: in vivo, rat; details: all doses, at the termination of the study, compared to vehicle treated rats
Description: RIPA consists of 0.5 ml 10% SDS, 2.5 ml 10% Sodium Deoxycholate, 0.5 ml NP40, and 46.5 ml PBS. […] 10 mL of lysis buffer (modified RIPA) is added to tissue (1 ml/½ brain) and homogenized on ice. The lysates are then centrifuged at 10000 rpm for 10 min at 4° C. The supernatant is then transferred to a new tube and kept on ice. The supernatant samples are respun at 10000 rpm for 10 min at 4° C. The supernatant is then transferred to a new tube and kept on ice. An aliquot of the supernatant is taken and the protein is measured with the Pierce BCA protein assay kit (cat#23225), using BSA standard curve (do a 1:25 dilution in PBS). The remaining supernatant is diluted to 1 ug/ul with Biorad Laemmli Sample buffer (cat#161-0737) with β-mercaptoethanol added. The samples are boiled for 5 min at 95° C. and spun in a microfuge for 1 minute. The samples are snap frozen on dry ice and stored at −20° C. 10 ug of protein/lane (10 uL) is then loaded and the Western blot is run according to Example 3. Inhibition of GSK-3α/β pTYR is determined by comparing the density of the protein band in samples obtained from animals treated with compound to samples from vehicle treated animals. […] Lysates were analyzed by Western blot (see Example 3) and probed for GSK-3α/β pTYR levels.

- IC50 [1]: 230 nM
Structure (SMILES): Cc1nc(-c2ccccc2Cl)nc(Nc2n[nH]c3ncc(F)cc23)c1C [Compound I-1, N-(2-(2-chlorophenyl)-5,6-dimethylpyrimidin-4-yl)-5-fluoro-1H-pyrazolo[3,4-b]pyridin-3-amine]
- deficit in forepaw asymmetry (cylinder test) (rats subjected to MCAO): significantly ameliorated this deficit
- GSK-3α/β pTYR signal in the brain (GSK-3α/β pTYR): significant reduction in pTYR signal
